13 compounds from patent publication US20090275583A1, “ANTIVIRAL COMPOUNDS AND USE THEREOF” (Myriad Genetics, Incorporated, priority 2006, published 2009) can be followed below.

Experiment [1] concerns HIV-1 laboratory strain, NL4-3. The experiment can be described thus: MT-4 cytoprotection assay. Type of experiment: cell-based. Here is the method: The HTLV-1 transformed T cell line, MT-4, is highly susceptible to HIV-1 infection. Anti-HIV-1 agents were evaluated in this target cell line by protection from the HIV-induced cytopathic effect. In this assay, viability of both HIV-1 and mock-infected cells was assessed in a […] assay that monitors the ability of metabolically-active cells to reduce the tetrazolium salt WST-1. Cytoprotection by antiviral compounds is indicated by the positive readout of increased WST-1 cleavage.
Briefly, exponentially growing MT-4 cells were mock-infected or batch-infected with the HIV-1 laboratory strain, NL4-3, at a multiplicity of infection of 0.0005. Following a two hour infection, the cells were washed to remove unbound virus and plated in the presence of increasing concentrations of compound. After four days incubation, cytoprotection in the infected cells and compound toxicity in mock-infected cells were analyzed using the WST-1 assay.

A further experiment deals with HIV-1NL4-3. The experiment can be described thus: P4-MAGI assay. Type of experiment: cell-based. The source says: P4 cells were used to test the effects of compounds on virus fusion activity. P4 cells are HIV-1 infectable CD4^+ HeLa cells that bear the bacterial lacZ gene under the control of a minimal HIV-1 LTR. Charneau, et. al., J. Mol. Biol. 241:651-662 (1994). When these cells are infected with HIV-1, β-galactosidase is expressed due to Tat activation of the viral LTR. In this assay, P4 cells were infected with the laboratory adapted strain HIV-1NL4-3 at a multiplicity of infection of 1 in the presence of DEAE-Dextran. Immediately after addition of virus to the cells, increasing concentrations of compound were added to the cells. […] The effect on cell viability (TC50, concentration of compound that inhibits growth by 50%) was determined in mock-infected cells with the WST-1 Cell Proliferation Reagent (Roche Diagnostics).

Setting [2] is: Human immunodeficiency virus 1, NL43, MT4, 96 h, MT-4 cells, four days incubation, WST-1 readout, read-out: MT4 EC50.
[3] abbreviates: Human immunodeficiency virus 1, 24 h, P4 cells, 24 hour incubation, β-galactosidase expression, read-out: P4-MAGI IC50.
The mark [4] stands for this setting: Human immunodeficiency virus 1, text statement, less than about 100 nm, read-out: P4-MAGI assay IC50.
[5] abbreviates: Human immunodeficiency virus 1, NL43, less than about 100 nm, read-out: MT-4 assay EC50 (concentration of compound that reduces the virus induced cytopathic effect by 50%).

Read-outs that look alike come from different tables or passages of the source.

As a reminder, the IC50 is the point on the concentration scale where inhibition reaches its midpoint. As to `C=C(C)[C@@H]1CC[C@]2(C(=O)NCc3cccc(C(=O)NCCCCC(=O)O)c3)CC[C@]3(C)C(CCC4[C@@]5(C)CC[C@H](O)C(C)(C)C5CC[C@]43C)C12` (stereo partly shown) [Example 1], in experiment [1] (setting [2]), the EC50 is 0.615 µM. In the experiment on HIV-1NL4-3 (setting [3]), the IC50 amounted to 0.0493 µM.

Regarding `C=C(C)[C@@H]1CC[C@]2(C(=O)NCc3cccc(C(=O)NCCCCCCC(=O)O)c3)CC[C@]3(C)C(CCC4[C@@]5(C)CC[C@H](O)C(C)(C)C5CC[C@]43C)C12` (stereo partly shown) [Example 2], the EC50 in experiment [1] (setting [2]) stood at 0.94 µM. Moreover, the IC50 in the experiment with HIV-1NL4-3 (setting [3]) is 0.0467 µM; in the experiment on HIV-1NL4-3 (setting [4]) it was below 0.1 µM.

`C=C(C)[C@@H]1CC[C@]2(C(=O)NCc3cccc(C(=O)NCCNC(C)=O)c3)CC[C@]3(C)C(CCC4[C@@]5(C)CC[C@H](O)C(C)(C)C5CC[C@]43C)C12` (stereo partly shown) [Example 4]: the EC50 in experiment [1] (setting [2]) came out at 2.3 µM. Moreover, the IC50 in the experiment on HIV-1NL4-3 (setting [3]) came to 0.155 µM.

On to `C=C(C)[C@@H]1CC[C@]2(C(=O)NCc3cccc(C(=O)NCCNC(=O)OCc4ccccc4)c3)CC[C@]3(C)C(CCC4[C@@]5(C)CC[C@H](O)C(C)(C)C5CC[C@]43C)C12` (stereo partly shown) [Example 5], for which the EC50 in experiment [1] (setting [2]) came to 2.5 µM. Besides, the IC50 with HIV-1NL4-3 (setting [3]) came out at 0.107 µM.

Take `C=C(C)[C@@H]1CC[C@]2(C(=O)NCc3cccc(C(=O)NCc4cccc(C(=O)O)c4)c3)CC[C@]3(C)C(CCC4[C@@]5(C)CC[C@H](O)C(C)(C)C5CC[C@]43C)C12` (stereo partly shown) [Example 6]: the EC50 in experiment [1] (setting [2]) is 0.071 µM; in experiment [1] (setting [5]) it was below 0.1 µM. The IC50 in the experiment on HIV-1NL4-3 (setting [3]) was 0.0156 µM; in the experiment on HIV-1NL4-3 (setting [4]) it was below 0.1 µM.

Take `C=C(C)[C@@H]1CC[C@]2(C(=O)NCc3cccc(C(=O)NCc4ccc(C(=O)O)cc4)c3)CC[C@]3(C)C(CCC4[C@@]5(C)CC[C@H](O)C(C)(C)C5CC[C@]43C)C12` (stereo partly shown) [Example 7]: the EC50 in experiment [1] (setting [2]) is 0.0072 µM; in experiment [1] (setting [5]), below 0.1 µM. Moreover, the values for the concentration for half-maximal inhibition (IC50) in the experiment on HIV-1NL4-3 (setting [3]) and in the experiment with HIV-1NL4-3 (setting [4]) were 0.0214 µM and below 0.1 µM, respectively.

For the compound `C=C(C)[C@@H]1CC[C@]2(C(=O)NCc3cccc(C(=O)NCCc4ccc(C(=O)O)cc4)c3)CC[C@]3(C)C(CCC4[C@@]5(C)CC[C@H](O)C(C)(C)C5CC[C@]43C)C12` (stereo partly shown) [Example 9], the EC50 in experiment [1] (setting [2]) is 0.0055 µM; in experiment [1] (setting [5]) it was below 0.1 µM. The results for the IC50 with HIV-1NL4-3 (setting [3]) and with HIV-1NL4-3 (setting [4]) were 0.0223 µM and below 0.1 µM, respectively.

`C=C(C)[C@@H]1CC[C@]2(C(=O)NCc3cccc(C(=O)NCCc4ccccc4C(=O)O)c3)CC[C@]3(C)C(CCC4[C@@]5(C)CC[C@H](O)C(C)(C)C5CC[C@]43C)C12` (stereo partly shown) [Example 10]: the EC50 in experiment [1] (setting [2]) came out at 1.3 µM. In the experiment with HIV-1NL4-3 (setting [3]), the concentration for half-maximal inhibition (IC50) was 0.128 µM.

Turning to `C=C(C)[C@@H]1CC[C@]2(C(=O)NCc3cccc(C(=O)NCc4ccc(O)c(C(=O)O)c4)c3)CC[C@]3(C)C(CCC4[C@@]5(C)CC[C@H](O)C(C)(C)C5CC[C@]43C)C12` (stereo partly shown) [Example 13], the EC50 in experiment [1] (setting [2]) turned out to be 0.873 µM. The figures for the IC50 in the experiment with HIV-1NL4-3 (setting [3]) and in the experiment with HIV-1NL4-3 (setting [4]) were 0.028 µM and below 0.1 µM, respectively.

In the case of `C=C(C)[C@@H]1CC[C@]2(C(=O)NCc3cccc(C(=O)NCc4cccc(C(=O)O)c4C)c3)CC[C@]3(C)C(CCC4[C@@]5(C)CC[C@H](O)C(C)(C)C5CC[C@]43C)C12` (stereo partly shown) [Example 17], the EC50 in experiment [1] (setting [2]) was 0.087 µM; in experiment [1] (setting [5]), below 0.1 µM. Moreover, the figures for the 50% inhibitory concentration (IC50) in the experiment with HIV-1NL4-3 (setting [3]) and in the experiment on HIV-1NL4-3 (setting [4]) were 0.032 µM and below 0.1 µM, respectively.

In the case of `C=C(C)[C@@H]1CC[C@]2(C(=O)NCc3cccc(C(=O)Nc4ccc5cc(C(=O)O)ccc5c4)c3)CC[C@]3(C)C(CCC4[C@@]5(C)CC[C@H](O)C(C)(C)C5CC[C@]43C)C12` (stereo partly shown) [Example 18], the EC50 in experiment [1] (setting [2]) is 6.1 µM. Moreover, the concentration for half-maximal inhibition (IC50) in the experiment with HIV-1NL4-3 (setting [3]) is 0.108 µM.

With `C=C(C)[C@@H]1CC[C@]2(C(=O)NCc3ccc(C(=O)NCCNC(C)=O)cc3)CC[C@]3(C)C(CCC4[C@@]5(C)CC[C@H](O)C(C)(C)C5CC[C@]43C)C12` (stereo partly shown) [Example 52], in experiment [1] (setting [2]), the EC50 was found to be 10 µM.

In the case of `C=C(C)[C@@H]1CC[C@]2(C(=O)NCc3ccc(C(=O)NCCNC(=O)OCc4ccccc4)cc3)CC[C@]3(C)C(CCC4[C@@]5(C)CC[C@H](O)C(C)(C)C5CC[C@]43C)C12` (stereo partly shown) [Example 53], in experiment [1] (setting [2]), the EC50 worked out at 10 µM.
